Laboratory results taken from ChEMBL document CHEMBL4616699, “Characterization of Specific N-α-Acetyltransferase 50 (Naa50) Inhibitors Identified Using a DNA Encoded Library” (ACS Med Chem Lett, 2020).

Tests used:
[1] = Dissociation constant, pKa of compound; assay type: physicochemical
[2] = biological target: T1, N-alpha-acetyltransferase 50 (Homo sapiens) (UniProt Q9GZZ1)
T1 sequence (whole entry): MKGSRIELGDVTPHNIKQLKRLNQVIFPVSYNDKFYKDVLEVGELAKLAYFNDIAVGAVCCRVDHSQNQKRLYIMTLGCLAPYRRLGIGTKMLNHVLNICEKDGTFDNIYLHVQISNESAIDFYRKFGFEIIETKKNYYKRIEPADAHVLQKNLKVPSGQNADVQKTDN
Description: Binding affinity to full length human N-terminal His-tagged/GST-tagged Naa50 expressed in Escherichia coli BL21(DE3) cells assessed as half life for dissociation by SPR analysis

[3] = biological target: T2, N-alpha-acetyltransferase 50 (Homo sapiens, UniProt Q9GZZ1); assay: Binding affinity to full length human N-terminal His-tagged/GST-tagged Naa50 expressed in Escherichia coli BL21(DE3) cells in by SPR analysis
T2 sequence (Q9GZZ1 whole entry): T1 sequence (whole entry)

pKa [1] | T1/2 [2] [min] | Kd [3] [nM] | SMILES
– | 4 | 17.6 | CC(=O)SCCNC(=O)CCNC(=O)[C@H](O)C(C)(C)COP(=O)(O)OP(=O)(O)OC[C@H]1O[C@@H](n2cnc3c(N)ncnc32)[C@H](O)[C@@H]1OP(=O)(O)O
– | 0.4 | 156 | CC(C)(COP(=O)(O)OP(=O)(O)OC[C@H]1O[C@@H](n2cnc3c(N)ncnc32)[C@H](O)[C@@H]1OP(=O)(O)O)[C@@H](O)C(=O)NCCC(=O)NCCS [COENZYME_A]

The next lines start with the compound.

SMILES | pKa [1] | T1/2 [2] [min] | Kd [3] [nM]
Cc1csc([C@@H]2C[C@H](NC(=O)[C@@H]3CC(=O)N(C)C(=O)N3)CN2C(=O)c2ccc(-c3nnc[nH]3)cc2)n1 | 8.9 | – | –
CNC(=O)c1csc([C@@H]2C[C@H](NC(=O)[C@@H]3CC(=O)N(C)C(=O)N3)CN2C(=O)c2ccc(-c3nn[nH]n3)cc2)n1 | 4 | – | –
Cc1csc([C@@H]2C[C@H](NC(=O)[C@@H]3CC(=O)N(C)C(=O)N3)CN2C(=O)c2ccc(-c3nn[nH]n3)cc2)n1 | 3.7 | – | –
Cc1csc([C@@H]2C[C@H](NC(=O)[C@@H]3CC(=O)N(C)C(=O)N3)CN2C(=O)c2ccc(C(=O)O)cc2)n1 | 3.6 | – | –
